Source: patent US10597388B2, “Pyridazinone herbicides” (FMC CORPORATION, priority 2014, dated 2020)

What was measured:
Format in all cases: in vivo
[1] = test system: oat, wild (wild oat, Avena fatua); experiment: Test C greenhouse herbicide test, postemergence; conditions: Postemergence
Summary of the method: (§1)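 Seedlings are raised in pots of peat moss–vermiculite medium with starter nutrients, then receive postemergence test chemical at the 1- to 4-leaf stage. They are kept in the greenhouse 13 to 15 d and scored visually versus controls, 0 meaning no effect and 100 complete control.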

kochia (Kochia scoparia) = experiment: Test C greenhouse herbicide test, postemergence; conditions: Postemergence
Summary of the method: as §1

[2] = test system: chickweed (common chickweed, Stellaria media); experiment: Test C greenhouse herbicide test, postemergence; conditions: for Plant response rating, Chickweed: Postemergence
Summary of the method: as §1

[3] = test system: ryegrass, Italian (Italian ryegrass, Lolium multiflorum); experiment: Test C greenhouse herbicide test, pre- and postemergence
Summary of the method: (§2)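 Percent-control ratings (0 none, 100 complete) came from visual comparison with controls held alongside in the greenhouse for 13–15 d. Treatments covered soil application at sowing and foliar application to young plants 2–18 cm tall.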

[4] = test system: velvetleaf (Abutilon theophrasti); experiment: as above
Summary of the method: as §2

[5] = test system: pigweed (Amaranthus retroflexus); experiment: as above
Summary of the method: as §2

[6] = test system: galium (catchweed bedstraw, Galium aparine); experiment: as above
Summary of the method: as §2

[7] = test system: ragweed (common ragweed, Ambrosia elatior); experiment: as above
Summary of the method: as §2

[8] = test system: blackgrass (Alopecurus myosuroides); experiment: as above
Summary of the method: as §2

[9] = test system: nutsedge, yellow (yellow nutsedge, Cyperus esculentus); experiment: as above
Summary of the method: as §2

soybean (Glycine max) = experiment: as above
Summary of the method: as §2

[10] = test system: barnyardgrass (Echinochloa crus-galli); experiment: as above
Summary of the method: as §2

[11] = test system: galium (catchweed bedstraw, Galium aparine); experiment: Test A greenhouse herbicide test, postemergence
Summary of the method: (§3)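 Scores are visual injury ratings from 0 (no effect) to 100 (complete control) versus untreated plants, taken roughly 10 d after treatment in the greenhouse. Treatment was postemergence, on one- to two-leaf plants 2–10 cm high growing in a loam soil/sand mix.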

[12] = test system: blackgrass (Alopecurus myosuroides); experiment: Test A greenhouse herbicide test, postemergence
Summary of the method: as §3

[13] = 31 g ai/ha, scale 0 to 100 (0 no effect, 100 complete control)
[14] = 125 g ai/ha, scale 0 to 100, 0 is no effect, 100 is complete control
[15] = 250 g ai/ha, scale 0 to 100, 0 no effect, 100 complete control, 13 to 15 d
[16] = postemergence, 62 g ai/ha, scale 0 to 100, 0 no effect, 100 complete control
[17] = Postemergence, 31 g ai/ha, scale 0 to 100 (0 no effect, 100 complete control)
[18] = Postemergence, 125 g ai/ha, scale 0 to 100, 0 is no effect, 100 is complete control
[19] = Postemergence, 250 g ai/ha, scale 0 to 100, 0 no effect, 100 complete control, 13 to 15 d
[20] = Preemergence, 31 g ai/ha, scale 0 to 100, 0 is no effect, 100 is complete control
[21] = Preemergence, 62 g ai/ha, scale 0 to 100, 0 is no effect, 100 is complete control
[22] = Preemergence, 125 g ai/ha, scale 0 to 100, 0 is no effect, 100 is complete control
[23] = Preemergence, 250 g ai/ha, scale 0 to 100, 0 no effect, 100 complete control
[24] = 125 g ai/ha, 0 to 100 scale where 0 is no effect and 100 is complete control

Compound: CCCC(=O)Oc1c(C)nn(C)c(=O)c1-c1c(CC)sc2ccc(C)cc12 [Compound 107]
- Plant response rating, Oat, Wild [1, 13]: 20
- Plant response rating, Oat, Wild [1, 14]: 40
- Plant response rating, Oat, Wild [1, 15]: 35
- Plant response rating, Kochia (kochia (Kochia scoparia); [13]): 70
- Plant response rating, Kochia (kochia (Kochia scoparia); [14]): 90
- Plant response rating, Kochia (kochia (Kochia scoparia); [15]): 90
- Plant response rating, Chickweed [2, 13]: 90
- Plant response rating, Chickweed [2, 14]: 95
- Plant response rating, Chickweed [2, 15]: 98
- Chickweed plant response rating [2, 16]: 90
- Plant response rating, Ryegrass, Italian [3, 17]: 40
- Plant response rating, Ryegrass, Italian [3, 18]: 60
- Plant response rating, Ryegrass, Italian [3, 19]: 90
- Plant response rating, Ryegrass, Italian [3, 20]: 15
- Plant response rating, Ryegrass, Italian [3, 21]: 35
- Plant response rating, Ryegrass, Italian [3, 22]: 35
- Ryegrass, Italian plant response rating [3, 23]: 30
- Plant response rating, Velvetleaf [4, 17]: 75
- Plant response rating, Velvetleaf [4, 18]: 95
- Plant response rating, Velvetleaf [4, 19]: 100
- Plant response rating, Velvetleaf [4, 20]: 30
- Plant response rating, Velvetleaf [4, 21]: 60
- Plant response rating, Velvetleaf [4, 22]: 85
- Velvetleaf plant response rating [4, 23]: 90
- Plant response rating, Pigweed [5, 17]: 85
- Plant response rating, Pigweed [5, 18]: 98
- Plant response rating, Pigweed [5, 19]: 98
- Plant response rating, Pigweed [5, 20]: 100
- Plant response rating, Pigweed [5, 21]: 100
- Plant response rating, Pigweed [5, 22]: 100
- Pigweed plant response rating [5, 23]: 100
- Plant response rating, Galium [6, 17]: 95
- Plant response rating, Galium [6, 18]: 100
- Plant response rating, Galium [6, 19]: 98
- Plant response rating, Galium [6, 20]: 90
- Plant response rating, Galium [6, 21]: 90
- Plant response rating, Galium [6, 22]: 90
- Galium plant response rating [6, 23]: 95
- Plant response rating, Ragweed [7, 17]: 85
- Plant response rating, Ragweed [7, 18]: 98
- Plant response rating, Ragweed [7, 19]: 98
- Plant response rating, Ragweed [7, 20]: 75
- Plant response rating, Ragweed [7, 21]: 90
- Plant response rating, Ragweed [7, 22]: 85
- Ragweed plant response rating [7, 23]: 100
- Plant response rating, Blackgrass [8, 17]: 0
- Plant response rating, Blackgrass [8, 18]: 5
- Plant response rating, Blackgrass [8, 19]: 30
- Plant response rating, Blackgrass [8, 20]: 0
- Plant response rating, Blackgrass [8, 21]: 5
- Plant response rating, Blackgrass [8, 22]: 10
- Blackgrass plant response rating [8, 23]: 10
- Blackgrass plant response rating [8, 16]: 5
- Plant response rating, Nutsedge, Yellow [9, 17]: 80
- Plant response rating, Nutsedge, Yellow [9, 18]: 75
- Plant response rating, Nutsedge, Yellow [9, 19]: 85
- Plant response rating, Nutsedge, Yellow [9, 20]: 30
- Plant response rating, Nutsedge, Yellow [9, 21]: 50
- Plant response rating, Nutsedge, Yellow [9, 22]: 70
- Nutsedge, Yellow plant response rating [9, 23]: 90
- Plant response rating, Soybean (soybean (Glycine max); [17]): 0
- Plant response rating, Soybean (soybean (Glycine max); [18]): 20
- Plant response rating, Soybean (soybean (Glycine max); [19]): 10
- Plant response rating, Soybean (soybean (Glycine max); [20]): 75
- Plant response rating, Soybean (soybean (Glycine max); [21]): 0
- Plant response rating, Soybean (soybean (Glycine max); [22]): 0
- Soybean plant response rating (soybean (Glycine max); [23]): 15
- Plant response rating, Barnyardgrass [10, 17]: 35
- Plant response rating, Barnyardgrass [10, 18]: 40
- Plant response rating, Barnyardgrass [10, 19]: 90
- Plant response rating, Barnyardgrass [10, 20]: 15
- Plant response rating, Barnyardgrass [10, 21]: 45
- Plant response rating, Barnyardgrass [10, 22]: 80
- Barnyardgrass plant response rating [10, 23]: 98
- Barnyardgrass plant response rating [10, 16]: 50
- Plant response rating, Galium [11, 24]: 100
- Plant response rating, Galium ([11]; 500 g ai/ha, visual rating after approx. 10 d, 0 to 100 scale (0 no effect, 100 complete control)): 100
- Plant response rating, Blackgrass [12, 24]: 80
- Blackgrass plant response rating ([12]; 500 g ai/ha, 0 to 100 scale, 0 is no effect, 100 is complete control): 90
